From US20250114367A1, “METHOD OF TREATING HAIR LOSS DISORDERS” (Sun Pharmaceutical Industries, Inc., priority 2023, published 2025)
“And” between values parts separate entries of the source, which are not always exact repeats. Equal values may be shown once.

What was measured:
subjects with AA = assay: Open-label extension (OLE) studies: SALT score over time; format: in vivo, human; settings: for percentage of subjects with a SALT score of ≤20: out to Week 52, pooled interim analysis
Experimental: The SALT score is calculated for a patient/subject by measuring the percentage of hair loss in each of the 4 areas of the scalp and adding the total to achieve a composite score (referred to herein as an absolute SALT score). Hair regrowth is reflected by a decrease in the SALT score. For example, no hair on the scalp would have a SALT score of 100 (i.e., an absolute SALT score) while complete hair regrowth would be a SALT score of 0 (i.e., an absolute SALT score).
Subjects completing 24 weeks of treatment with […] 8 mg twice daily in the Phase III trial were eligible to continue treatment in an open label extension trial. Following 52 additional weeks of treatment with […]™ 8 mg twice daily clinical response rates continued to increase with approximately 74% of the 80 subjects on 8 mg twice daily for 76 weeks achieving SALT ≤20.
The qualifying clinical trials including the following: 1. NCT03137381; 2. NCT03811912; 3. NCT03941548; 4. NCT04784533; 5. NCT04518995; and 6. NCT04797650 (all available a at https://clinicaltrials.gov).
The OLE Efficacy Population is defined as all subjects who received at least one dose of deuruxolitinib and had at least one post-baseline SALT assessment in OLE. The data analyses include subjects' data from the qualifying trial. Missing SALT scores were not imputed. The number of subjects decreases over time due to missing data, patient discontinuations, or subjects not yet at the later timepoints. Any SALT data after a qualifying dose change in the OLE was censored for all figures included here, except those showing the overall treatment sequence. A “qualifying dose change” referred to herein can be placebo in any qualifying trial to any dose of deuruxolitinib in the OLE (includes subjects who switched doses), or any dose of deuruxolitinib in a qualifying trial to any dose of deuruxolitinib in the OLE. Various analyses using SALT scores were conducted to best estimate the overall long-term effect of deuruxolitinib considering the issues with dose changes and decreasing patient numbers over time. “Any Dose” analysis tracks all active subjects over time pooled across the two doses. “As Observed” analysis censors subjects at the time of dose adjustment or study discontinuation. “LOCF” (last observation carried forward) analysis utilizes the last SALT score before dose change and carries it forward for all other timepoints up to 52 weeks.

[1] = system: adult subjects with moderate to severe AA; assay: Phase III trial: Hair Quality Patient Reported Outcome (QPRO); format: in vivo, human; settings: Weeks 12, 16, 20, and 24
Experimental: A Phase III trial was conducted to assess the efficacy and safety of CTP-543 in adult subjects with moderate to severe AA. Approximately 440 adult male and female subjects 18 to 65 years of age, inclusive, with moderate to severe AA participated in the study. Subjects with definitive diagnosis of AA, and at least 50% hair loss, as defined by a SALT score ≥50, who met all of the inclusion criteria and none of the exclusion criteria participated in the study.
The Screening Period lasted up to 28 days prior to initiation of study drug. […] Randomization was stratified by scalp hair loss into 1 of the following 2 categories: 1) partial scalp hair loss (SALT ≥50 and <95), 2) complete or near complete scalp hair loss (SALT ≥95).
Additional secondary efficacy endpoints included the following: • Relative change in SALT scores from baseline at Weeks 4, 8, 12, 16, 20, and 24. • Percentage of responders (defined as “much improved” or “very much improved”) using the Clinical Global Impression of Improvement (CGI-I) at Weeks 12, 16, 20, and 24. • Percentage of responders (defined as “much improved” or “very much improved”) using the Patient Global Impression of Improvement (PGI-I) at Weeks 12, 16, 20, and 24. • Change from baseline in the Clinical Global Impression of Severity (CGI-S) at Weeks 12, 16, 20, and 24. • Change from baseline in the Patient Global Impression of Severity (PGI-S) at Weeks 12, 16, 20, and 24. • Change from baseline on the Brigham Eyebrow Tool for Alopecia (BETA) score at Weeks 12 and 24. • Change from baseline on the Brigham Eyelash Tool for Alopecia (BELA) score at Weeks 12 and 24. • Percentage of subjects achieving at least a 75% relative reduction in SALT score from baseline at Weeks 12 and 24. • Percentage of subjects achieving at least a 90% relative reduction in SALT score from baseline at Weeks 12 and 24. • Percentage of responders (defined as “satisfied” or “very satisfied”) on the SPRO scale at Weeks 12, 16, and 20. • Change from baseline in the SPRO scale at Weeks 12, 16, 20, and 24. • Percentage of subjects achieving a ≥2-point change from baseline in the SPRO scale at Weeks 12, 16, 20, and 24. • Change from baseline on the individual items of the Hair Quality Patient Reported Outcome (QPRO) scale at Weeks 12, 16, 20, and 24. • Change from baseline in the depression scale of the Hospital Anxiety and Depression Scale (HADS) at Week 24. • Change from baseline in the anxiety scale of the HADS at Week 24. • Percentage of subjects achieving an absolute SALT score of ≤20 at Week 4. • Percentage of subjects achieving an absolute SALT score of ≤10 at Week 24
The individual items of satisfaction with thickness of hair coverage, satisfaction with evenness of hair coverage, satisfaction with eyebrows, and satisfaction with eyelashes are rated on a scale of 1 to 5. A decrease from baseline in the QPRO score represents improvement. For each item and time point, treatment group differences favored CTP-543 over placebo.

[2H]C1([2H])C([C@@H](CC#N)n2cc(-c3ncnc4[nH]ccc34)cn2)C([2H])([2H])C([2H])([2H])C1([2H])[2H] [CTP-543, (R)-3-(4-(7H-pyrrolo[2,3-d]pyrimidin-4-yl)-1H-pyrazol-1-yl)-3-(cyclopentyl-2,2,3,3,4,4,5,5-d8) propanenitrile]
pooled mean SALT score (subjects with AA; 8 mg BID in OLE, placebo in the earlier studies): 30.4 | OLE responders who maintained treatment response in the OLE (subjects with AA; 8 mg BID in the OLE without a qualifying dose change, 282 of 283 responders): 99.6% | pooled mean SALT score (subjects with AA; 12 mg BID in OLE, placebo in the earlier studies): 43.0 | pooled mean SALT score (subjects with AA; 52 weeks, 8 mg BID in OLE, 8 mg of deuruxolitinib in the earlier studies): 25.6 | pooled mean SALT score (subjects with AA; 52 weeks, 8 mg BID or 12 mg BID in OLE, dosed with deuruxolitinib in the earlier studies): 31.7 | pooled mean SALT score (subjects with AA; 52 weeks, 8 mg BID or 12 mg BID in OLE, placebo in the earlier studies): 43.6 | pooled mean SALT score (subjects with AA; 52 weeks, 12 mg BID in OLE, 12 mg of deuruxolitinib in the earlier studies): 27.7 | subjects achieving SALT ≤20 (subjects with AA; 80 subjects on 8 mg twice daily for 76 weeks (24 weeks Phase III + 52 weeks open label extension)): approximately 74% | proportion of participants achieving SALT ≤20 (subjects with AA; OLE at Week 68, any dose (including switched doses), listed as deuruxolitinib): 62.6% and 63% | proportion of participants achieving SALT ≤20 (FIG. 13A) (subjects with AA; Week 68, 8 mg BID): > 80% | patients achieving SALT 10 (subjects with AA; Week 68, 8 mg BID/8 mg BID group, As observed, 179/256): 69.9% | patients achieving SALT 10 (subjects with AA; Week 68, 8 mg BID/8 mg BID group, LOCF, 213/521): 40.9% | proportion of participants achieving SALT ≤20 (subjects with AA; Week 68, 8 mg BID, As Observed (AO), listed as deuruxolitinib): 76.6% and 77% | proportion of participants achieving SALT ≤20 (subjects with AA; Week 68, 8 mg BID, LOCF): 48.8% | proportion of participants achieving SALT ≤20 (subjects with AA; Week 68, 12 mg BID, As Observed (AO), listed as deuruxolitinib): 66.7% and 67% | proportion of participants achieving SALT ≤20 (subjects with AA; Week 68, 12 mg BID, LOCF): 60.9% | patients achieving SALT 10 (subjects with AA; Week 68, placebo/8 mg BID group, As observed, 39/59): 66.1% | patients achieving SALT 10 (subjects with AA; Week 68, placebo/8 mg BID group, LOCF, 41/122): 33.6% | proportion of participants achieving SALT ≤20 (subjects with AA; established in the Qualifying Studies, any dose): 34.9% | Mean SALT score (subjects with AA; out to 68 weeks, any dose in Qualifying Study and OLE, n=836, baseline 86.8 (n=984)): 26.8 | percentage of subjects with a SALT score of ≤20 (subjects with AA; 8 mg twice per day in the OLE, listed as deuruxolitinib): 63.6% and 64% | percentage of subjects with a SALT score of ≤20 (subjects with AA; 12 mg twice per day in the OLE, listed as deuruxolitinib): 62.1% and 62% | percentage of subjects with a SALT score of ≤20 (subjects with AA; any dose in the OLE (including switched doses), listed as deuruxolitinib): 57.1% and 57% | QPRO satisfaction with evenness of hair coverage, treatment group difference from placebo ([1]; 8 mg BID): −1.3 to −0.9 | QPRO satisfaction with eyebrows, treatment group difference from placebo ([1]; 8 mg BID): −1.2 to −1.0 | QPRO satisfaction with eyelashes, treatment group difference from placebo ([1]; 8 mg BID): −1.2 to −0.9 | QPRO satisfaction with thickness of hair coverage, treatment group difference from placebo ([1]; 8 mg BID): −1.3 to −1.0 | QPRO satisfaction with evenness of hair coverage, treatment group difference from placebo ([1]; 12 mg BID): −1.5 to −1.0 | QPRO satisfaction with eyebrows, treatment group difference from placebo ([1]; 12 mg BID): −1.5 to −1.1 | QPRO satisfaction with eyelashes, treatment group difference from placebo ([1]; 12 mg BID): −1.4 to −0.9 | QPRO satisfaction with thickness of hair coverage, treatment group difference from placebo ([1]; 12 mg BID): −1.6 to −1.1
